Experimental data published in article PMC6273899 (Molecules, 2016).
≈ marks a conversion by molar mass, not a printed value. Where “and” joins values, the source holds several entries; their conditions need not be identical. Identical values can stand only once. Like-named read-outs stand apart in the source and are kept apart here. Square brackets hold non-standard residues; d marks the D form. Ends that are not written are not given here. Peptide text beside a SMILES is read from it.

Columns and labels:
[1] = system: Candida albicans (NCPF 1467); assay type: cell-based
Protocol: (§1) The antimicrobial activity was evaluated by minimal inhibitory concentration (MIC) and minimum bactericidal concentration (MBC) assays using broth microdilution methods and in vitro assays against reference strains of microorganisms; a Gram-positive bacterium, a Gram-negative bacterium, and a yeast, respectively, Staphylococcus aureus (NCTC 10788), Escherichia coli (NCTC 10418), and Candida albicans (NCPF 1467). Briefly, the reference strains were incubated in Muller-Hinton Broth (MHB) until logarithmic phase growth was achieved which was assessed by the optical density (OD) of the culture at 550 nm. The cultures were subjected to dilution to obtain 1 × 10^6 colony-forming units (cfu)/mL for bacteria or to 5 × 10^5 cfu/ml for the yeast. Serial peptide dilutions and cultures were loaded into a 96-well microtiter plate obtaining suspensions containing 1–512 mg/L tested peptides. After incubating at 37 °C for 24 h, MIC values were determined as the lowest concentration which produced a similar OD value to the negative control (medium only). Then 10 μL of inhibited culture from each well was subcultured on Muller-Hinton Agar (MHA) and incubated for 24 h. The MBC values were defined as the minimum concentration which effected no growth.

[2] = system: Escherichia coli (NCTC 10418); assay type: cell-based
Protocol: as §1

[3] = system: Staphylococcus aureus (NCTC 10788); assay type: cell-based
Protocol: as §1

[4] = system: trypsin; settings: 1 mg trypsin with 1 mg peptide in 1 mL PBS, MALDI-TOF/MS
Protocol: (§2) Two different media were used to appraise the stability and degradation sites of peptides, trypsin, and horse serum, respectively. For the trypsin assay, 1 mg of trypsin (Sigma-Aldrich) with 1 mg of peptide were incubated in 1 mL PBS for 72 h. Whilst for horse serum, the medium was prepared with 25% horse serum/RPMI medium (v/v) and incubated at 37 °C for 15 min. Peptide stock solution was added into the serum medium to obtain a solution having a final concentration of 1 mg/mL and test samples were kept at 37 °C for 72 h. At different time points, 20 μL samples were transferred into 100 μL of 0.25% (v/v) TFA/water which caused reaction termination. For the serum-digestion, samples were kept at 4 °C and centrifuged at 13,000 rpm for 15 min and the supernatants were then analysed by MALDI-TOF/MS.

[5] = 25% horse serum/RPMI medium (v/v), 1 mg/mL peptide, 37 °C up to 72 h, MALDI-TOF/MS
Protocol: as §2

[6] = 25% horse serum/RPMI medium (v/v); settings: 37 °C, up to 72 h
[7] = system: trypsin; test: 1 mg of trypsin (Sigma-Aldrich) with 1 mg of peptide in 1 mL PBS; settings: up to 72 h
[8] = system: defibrinated horse erythrocytes; test: Haemolysis assay; assay type: cell-based; settings: 2% (v/v) horse erythrocytes in PBS, 1 to 512 mg/L peptide, 37 °C 120 min, OD 550 nm; 100% = 1% Triton X-100
Protocol: The haemolytic activity of peptides against defibrinated horse erythrocytes (TCS Biosciences Ltd., Botolph Claydon, Buckingham, UK) was determined by comparing the degree of lysis after incubating tested peptides with prewashed red cell suspensions for 2 h. A 2% suspension (v/v) was formed with prewashed defibrinated horse erythrocytes and sodium phosphate-buffered saline (PBS). Peptides were incubated with this 2% suspension in a final concentration range from 1 to 512 mg/L and all the samples were kept at a constant 37 °C for 120 min. Negative controls and positive controls were PBS alone and PBS containing Triton X-100 (Sigma-Aldrich, St. Louis, MO, USA), respectively. The sample supernatants were used to assess the extent of haemolysis by measuring the OD value at 550 nm.

[9] = 10 μL of inhibited culture subcultured on Muller-Hinton Agar, 24 h, minimum concentration with no growth
[10] = broth microdilution, Muller-Hinton Broth, 5 × 10^5 cfu/ml, 1–512 mg/L peptide, 37 °C 24 h, OD read-out, NCPF 1467
[11] = broth microdilution, Muller-Hinton Broth, 1 × 10^6 cfu/mL, 1–512 mg/L peptide, 37 °C 24 h, OD read-out, NCTC 10418
[12] = broth microdilution, Muller-Hinton Broth, 1 × 10^6 cfu/mL, 1–512 mg/L peptide, 37 °C 24 h, OD read-out, NCTC 10788

## CC[C@H](C)[C@H](NC(=O)[C@H](C)NC(=O)[C@@H](CCCCN)NC(=O)[C@@H]1CCCN1C(=O)[C@@H](NC(=O)[C@H](CC(C)C)NC(=O)[C@H](CO)NC(=O)[C@H](CC(C)C)NC(=O)[C@@H](N)Cc1ccccc1)[C@@H](C)CC)C(=O)N[C@H](CCCCN)C(=O)N[C@@H](C)C(=O)N[C@H](C(=O)NCC(=O)N[C@H](C(=O)N[C@H](CCCCN)C(=O)N[C@@H](C)C(=O)N[C@H](CCCCN)C(=O)N[C@H](CCCCN)C(=O)N[C@@H](Cc1ccccc1)C(N)=O)C(C)C)C(C)C [PS-PT2a] (H-FLSLIP[dK]AI[dK]AVGV[dK]A[dK][dK]F-NH2)
[1]; [9]
  MBC C. albicans: 256 mg/L (≈ 124 µM)
[1]; [10]
  MIC C. albicans: 256 mg/L (≈ 124 µM)
[2]; [9]
  MBC E. coli: >512 mg/L
[2]; [11]
  MIC E. coli: >512 mg/L
[3]; [9]
  MBC S. aureus: >512 mg/L
[3]; [12]
  MIC S. aureus: >512 mg/L
[4]; up to 72 h
  Catabolites generated by incubation with trypsin (species detected, incl. intact 1–19): 1–19 FLSLIPKAIKAVGVKAKKF
  time stable in trypsin solution: ≥ 48 h
[5]; pre-incubated 37 °C 15 min
  stability in serum (in words): relatively stable after 72 h

## FLSLIPKAIKAVGVKAKKF-NH2 [PS-PT2b]
[6]
  fragment found: 1–17 (FLSLIPKAIKAVGVKAK), >48 h
[7]
  cleaved bond: Lys10-Ala11, 30 s

## FLSLIPKAIKAVGVKAKKF-NH2 [PS-PT2] [listing 1 of 2 here]
[1]; [9]
  MBC C. albicans: 32 mg/L
[1]; [10]
  MIC C. albicans: 16 mg/L
[2]; [9]
  MBC E. coli: >512 mg/L
[2]; [11]
  MIC E. coli: 512 mg/L
[3]; [9]
  MBC S. aureus: 64 mg/L
[3]; [12]
  MIC S. aureus: 64 mg/L
[8]
  haemolytic effect (in words): negligible haemolytic effects
[4]; up to 72 h
  time in which the original peptide was completely cleaved by trypsin: ≤ 30 s
[4]
  scissile site with trypsin: Lys^7-Ala^8
[5]; pre-incubated 37 °C 15 min
  time after which peptide was completely degraded in serum: ≤ 30 min

## FLSLIPHAINAVGVHAKHF-NH2 [PS-PT]
[1]; NCPF 1467, 24 h
  MBC C. albicans: >512 mg/L
  MIC C. albicans: 512 mg/L
[2]; NCTC 10418, 24 h
  MBC E. coli: >512 mg/L
  MIC E. coli: >512 mg/L
[3]; NCTC 10788, 24 h
  MBC S. aureus: >512 mg/L
  MIC S. aureus: 512 mg/L

## FLSLIPHAIKAVGVHAKHF-NH2 [PS-PT1]
[1]; NCPF 1467, 24 h
  MBC C. albicans: 256 mg/L
  MIC C. albicans: 128 mg/L
[2]; NCTC 10418, 24 h
  MBC E. coli: >512 mg/L
  MIC E. coli: 512 mg/L
[3]; NCTC 10788, 24 h
  MBC S. aureus: 256 mg/L
  MIC S. aureus: 128 mg/L

## FLSLIPKAIKAVGVKAKKF-NH2 [PS-PT2] [listing 2 of 2 here]
[6]
  cleaved bond: Lys7-Ala8, major
  fragment found: 1–16 fragment (FLSLIPKAIKAVGVKA-), minor, 1 min
[7]
  cleaved bond: Lys7-Ala8, major, 30 s
  fragment found: 1–17 FLSLIPKAIKAVGVKAK, 4 min

## FLSLIPKAIKAVGVKAKKF-NH2 [PS-PT2a]
[6]
  fragment found: 2–7 fragments (LSLIPK), minor, 4 h
[7]
  not cleaved: stable in trypsin solution for up to 48 h

## CC[C@H](C)[C@H](NC(=O)[C@H](C)NC(=O)[C@@H](CCCCN)NC(=O)[C@@H]1CCCN1C(=O)[C@@H](NC(=O)[C@H](CC(C)C)NC(=O)[C@H](CO)NC(=O)[C@H](CC(C)C)NC(=O)[C@@H](N)Cc1ccccc1)[C@@H](C)CC)C(=O)N[C@@H](CCCCN)C(=O)N[C@@H](C)C(=O)N[C@H](C(=O)NCC(=O)N[C@H](C(=O)N[C@@H](CCCCN)C(=O)N[C@@H](C)C(=O)N[C@@H](CCCCN)C(=O)N[C@@H](CCCCN)C(=O)N[C@@H](Cc1ccccc1)C(N)=O)C(C)C)C(C)C [PS-PT2b] (H-FLSLIP[dK]AIKAVGVKAKKF-NH2)
[1]; [9]
  MBC C. albicans: 64 mg/L (≈ 31.1 µM)
[1]; [10]
  MIC C. albicans: 32 mg/L (≈ 15.6 µM)
[2]; [9]
  MBC E. coli: 256 mg/L (≈ 124 µM)
[2]; [11]
  MIC E. coli: 256 mg/L (≈ 124 µM)
[3]; [9]
  MBC S. aureus: 512 mg/L (≈ 249 µM)
[3]; [12]
  MIC S. aureus: 256 mg/L (≈ 124 µM)
[4]; up to 72 h
  degradation by trypsin (in words): hydrolytically-degraded after a 30 s incubation
[4]
  scissile site with trypsin: Lys^10-Ala^11
[5]
  Catabolites generated by incubation with serum (species detected, incl. intact 1–19): 1–17 […] and 1–19 FLSLIPKAIKAVGVKAKKF
  incubation time in serum after which fragments 1–15, 1–14 and 1–17 were observed: > 48 h
[5]; pre-incubated 37 °C 15 min
  stability in serum (in words): strong stability
